{
  "source": "patent US20220087983A1",
  "about": "“ACTIVATING PYRUVATE KINASE R” (FORMA Therapeutics, Inc., priority 2020, published 2022)",
  "key": {"CYP2C9": {"biological_target": "T1, CYP2C9 (Homo sapiens, UniProt P11712)", "T1 construct": "from tissue; host or cells: human liver microsomes", "test": "Single substrate DDI assay, reversible CYP inhibition in human liver microsomes", "assay_type": "in vitro ADME"}, "PKR in mouse RBCs": {"biological_target": "T2, PKR in mouse RBCs (Mus musculus, UniProt P53657)", "T2 construct": "endogenous in cells; host or cells: mouse RBCs freshly isolated from whole blood", "test": "PKR activation in mouse red blood cells", "assay_type": "cell-based", "source_text": "Mouse RBCs were isolated fresh from whole blood using a Ficoll gradient and assayed with methods similar to those used in the human RBCs assays."}, "CYP3A4": {"test_system": "CYP3A4", "test": "CYP mRNA induction in cultured human hepatocytes", "assay_type": "in vitro ADME", "settings": "donors, HCS-40 individually"}, "[1]": {"test": "Phase 1: safety, adverse events in healthy volunteers", "assay_type": "in vivo, human", "experimental": "In this study, SAD/MAD cohorts are randomized (3 to 1) to receive Compound 1 or placebo (P). Compound 1 was evaluated first in 4 healthy SAD cohorts and 4 healthy MAD (14-day dosing period) cohorts. Based on the safety, and PK/PD profile from HS, Compound 1 is then evaluated in 1 SCD SAD cohort and 2 SCD MAD cohorts. Specifically, based on the safety and pharmacokinetic/pharmacodynamics (PK/PD) profile in healthy volunteer studies, Compound 1 is evaluated in patients (pts) with SCD, first in a single dose (SD or SAD) cohort and then in multiple-dose (MD or MAD) cohorts (14-day and 12-week). Safety assessments include AEs, vital signs, ECGs and laboratory parameters. PK/PD blood sampling was performed on Day 1 (SAD/MAD) and Day 14 (MAD) and up to 72 h after the last dose and at the end-of-study visit. PD parameters included 2,3-DPG, ATP, and p50 in all cohorts with additional PD studies (including oxygen scan) performed only in the SCD cohorts. PD parameters included 2,3-DPG, ATP, p50, RBC deformability with controlled deoxygenation and reoxygenation (Lorrca® oxygen scan) and varying osmolality (Lorrca® osmoscan)). To maintain study blind, pt identifiers were removed when needed.\nPrimary Outcome Measures: • 1. Incidence, frequency, and severity of adverse events (AEs) per CTCAE v5.0 of a single ascending dose and multiple ascending doses of Compound 1 in adult healthy volunteers and SCD patients. Incidence of abnormal laboratory test results (clinical chemistry, endocrine hematology, urinalysis). Change from baseline in vital signs (blood pressure, respiratory rate, heart rate, and oral temperature). […] Area under the plasma concentration-time curve from time zero until last quantifiable time point (AUC0-last) • [Time Frame: Up to 3 weeks of testing] • 6. […]\nAmong the TEAEs reported in Table 13, TEAEs of grade 2 or less related to Compound 1 in the SAD cohorts included headache (n=1) and transient ventricular tachycardia (n=1), each in a different subject. […] The subject's back-up sample was re-assessed independently, and no lipase elevation was detected."}, "PKR(G332S)": {"biological_target": "PKR(G332S) (Homo sapiens, UniProt P30613, G332S)", "sequence (P30613 whole entry G332S)": "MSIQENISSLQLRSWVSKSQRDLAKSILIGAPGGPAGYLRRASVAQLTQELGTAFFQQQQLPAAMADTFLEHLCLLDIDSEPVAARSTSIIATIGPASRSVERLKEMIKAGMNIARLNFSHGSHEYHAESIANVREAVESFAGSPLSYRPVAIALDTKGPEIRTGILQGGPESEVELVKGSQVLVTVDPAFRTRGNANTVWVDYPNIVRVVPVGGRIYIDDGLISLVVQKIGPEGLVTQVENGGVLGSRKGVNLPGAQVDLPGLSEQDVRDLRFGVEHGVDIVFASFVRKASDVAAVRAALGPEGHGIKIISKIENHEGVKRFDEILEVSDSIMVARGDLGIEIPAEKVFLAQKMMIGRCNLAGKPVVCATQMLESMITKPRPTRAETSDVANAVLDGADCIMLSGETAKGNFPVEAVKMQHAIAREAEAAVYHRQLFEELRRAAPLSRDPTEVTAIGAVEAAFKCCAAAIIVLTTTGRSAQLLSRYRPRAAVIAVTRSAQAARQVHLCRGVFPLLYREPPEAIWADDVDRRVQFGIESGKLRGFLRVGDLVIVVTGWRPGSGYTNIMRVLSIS", "test": "Luminescence Assay (Kinase Glo Plus) of PKR activation", "assay_type": "biochemical", "settings": "G332S variant; Luminescence Assay of Example 2", "experimental": "(§1) PKR Activating Compounds can be identified with the biochemical Luminescence Assay of Example 2. The PKR activating activity of a series of chemical compounds was evaluated using the Luminescence Assay below, including compounds designated Compound 1, and Compound 2, or mixtures thereof.\n(§2) For each tested compound, the ability to activate PKR was determined using the following Luminescence Assay. The effect of phosphorylation of adenosine-5′-diphosphate (ADP) by PKR is determined by the Kinase Glo Plus Assay (Promega) in the presence or absence of FBP (D-fructose-1,6-diphosphate; BOC Sciences, CAS: 81028-91-3) as follows. Unless otherwise indicated, all reagents are purchased from Sigma-Aldrich. All reagents are prepared in buffer containing 50 mM Tris-HCl, 100 mM KCl, 5 mM MgCl2, and 0.01% Triton X100, 0.03% BSA, and 1 mM DTT. Enzyme and PEP (phosphoenolpyruvate) are added at 2× to all wells of an assay-ready plate containing serial dilutions of test compounds or DMSO vehicle. Final enzyme concentrations for PKR(wt), PKR(R510Q), and PKR(G332S) are 0.8 nM, 0.8 nM, and 10 nM respectively. Final PEP concentration is 100 μM. The Enzyme/PEP mixture is incubated with compounds for 30 minutes at RT before the assay is initiated with the addition of 2×ADP and KinaseGloPlus. Final concentration of ADP is 100 μM. […] For assays containing FBP, that reagent is added at 30 μM upon reaction initiation. Reactions are allowed to progress for 45 minutes at RT until luminescence is recorded by the BMG PHERAstar FS Multilabel Reader. The compound is tested in triplicate at concentrations ranging from 42.5 μM to 2.2 nM in 0.83% DMSO. AC50 measurements were obtained by the standard four parameter fit algorithm of ActivityBase XE Runner (max, min, slope and AC50). The AC50 value for a compound is the concentration (μM) at which the activity along the four parameter logistic curve fit is halfway between minimum and maximum activity.\n(§3) As set forth in Table 2 below, AC50 values are defined as follows: ≤0.1 μM (+++); >0.1 μM and ≤1.0 μM (++); >1.0 μM and ≤40 μM (+); >40 μM (0)."}, "PKR(wt)": {"biological_target": "PKR(wt) (Homo sapiens, UniProt P30613)", "sequence (P30613 whole entry)": "as the sequence (P30613 whole entry G332S) above, with S332G counted along it", "test": "Luminescence Assay (Kinase Glo Plus) of PKR activation", "assay_type": "biochemical", "settings": "wild type; Luminescence Assay of Example 2", "experimental": "as §1, §2, §3"}, "PKR(R510Q)": {"biological_target": "PKR(R510Q) (Homo sapiens, UniProt P30613, R510Q)", "sequence (P30613 whole entry R510Q)": "as the sequence (P30613 whole entry G332S) above, with S332G, R510Q counted along it", "test": "Luminescence Assay (Kinase Glo Plus) of PKR activation", "assay_type": "biochemical", "settings": "R510Q variant; Luminescence Assay of Example 2", "experimental": "as §1, §2, §3"}},
  "note": "“And” between values parts separate entries of the source, which are not always exact repeats. Equal entries are not always repeated.",
  "data": [
    {"compound": "O=C([C@H](CO)c1ccccc1)N1CC2=C(C1)CN(S(=O)(=O)c1cnc3c(c1)OCCO3)C2", "note": "(single isomer, unassigned) [Compound 1]", "values": [
      {"measurement": "IC50", "setting": "CYP2C9", "result": "> 30000", "unit": "nM"},
      {"measurement": "Max − Min (%)", "setting": "PKR in mouse RBCs; individual replicates 1-2", "result": "<50% and <100%"},
      {"measurement": "Mean Max − Min (%)", "setting": "PKR in mouse RBCs; mean", "result": "<100", "unit": "%"},
      {"measurement": "mRNA Fold Induction CYP3A4", "setting": "CYP3A4; 0.033 μM", "result": "0.940 fold and 1.09 fold and 1.25 fold"},
      {"measurement": "mRNA Fold Induction CYP3A4", "setting": "CYP3A4; 0.1 μM", "result": "1.13 fold and 0.875 fold and 0.889 fold"},
      {"measurement": "mRNA Fold Induction CYP3A4", "setting": "CYP3A4; 0.33 μM", "result": "1.11 fold and 1.18 fold and 0.836 fold"},
      {"measurement": "mRNA Fold Induction CYP3A4", "setting": "CYP3A4; 1 μM", "result": "1.41 fold and 1.07 fold and 1.18 fold"},
      {"measurement": "mRNA Fold Induction CYP3A4", "setting": "CYP3A4; 3.3 μM", "result": "1.84 fold and 1.25 fold and 1.62 fold"},
      {"measurement": "mRNA Fold Induction CYP3A4", "setting": "CYP3A4; 10 μM", "result": "3.60 fold and 2.23 fold and 1.29 fold"},
      {"measurement": "Grade 1 headache incidence", "setting": "[1]; HS receiving 14 days", "result": 28, "unit": "%"},
      {"measurement": "Grade 1 headache incidence", "setting": "[1]; HS receiving a single dose", "result": 4, "unit": "%"},
      {"measurement": "serious adverse events or AEs leading to withdrawal", "setting": "[1]; HV SAD and MAD cohorts", "result": "No serious adverse events (SAEs) or AEs leading to withdrawal"},
      {"measurement": "AC50", "setting": "PKR(G332S)", "result": "< 1000", "unit": "nM"},
      {"measurement": "AC50", "setting": "PKR(wt)", "result": "< 1000", "unit": "nM"},
      {"measurement": "AC50", "setting": "PKR(R510Q)", "result": "< 1000", "unit": "nM"}
    ]}
  ]
}
